Data taken from the supplement of paper PMC3770661.
Counter-ions that a name gives are not always drawn. ± gives the uncertainty stated by the source.

Tested on: HepG2 (L1.3 5'UTR promoter firefly luciferase reporter)
Test: L1 promoter activity (FLuc/RLuc) relative to DMSO vehicle control (% of control); higher = stronger L1 promoter activation
Description: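 HepG2 cells in 96-well plates were cotransfected with pGL4.11-L1.3 5'UTR (firefly luciferase driven by the human L1.3 5'UTR promoter) and pGL4.74 (HSV-TK Renilla luciferase internal control), then treated with compound for 6 or 24 h. FLuc/RLuc ratio was normalised to the DMSO vehicle control (% of control); concentrations where RLuc fell below 50% of control were excluded (N.D.). Mean of at least two independent experiments in duplicate or quadruplicate.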

[1] = concentration (uM unless unit written): 250, treatment time: 6 h
[2] = concentration (uM unless unit written): 5, treatment time: 6 h
[3] = concentration (uM unless unit written): 5, treatment time: 24 h
[4] = concentration (uM unless unit written): 10, treatment time: 6 h
[5] = concentration (uM unless unit written): 10, treatment time: 24 h
[6] = concentration (uM unless unit written): 20, treatment time: 6 h
[7] = concentration (uM unless unit written): 20, treatment time: 24 h
[8] = concentration (uM unless unit written): 50, treatment time: 6 h
[9] = concentration (uM unless unit written): 50, treatment time: 24 h
[10] = concentration (uM unless unit written): 100, treatment time: 6 h
[11] = concentration (uM unless unit written): 100, treatment time: 24 h
[12] = concentration (uM unless unit written): 250, treatment time: 24 h
[13] = concentration (uM unless unit written): 500, treatment time: 6 h
[14] = concentration (uM unless unit written): 500, treatment time: 24 h
[15] = concentration (uM unless unit written): 1000, treatment time: 6 h
[16] = concentration (uM unless unit written): 1000, treatment time: 24 h
[17] = concentration (uM unless unit written): 200, treatment time: 6 h

Compound: O=C(O)c1ccccc1Nc1cccc(C(F)(F)F)c1 [Flufenamic acid]
- L1 promoter activity (concentration (uM unless unit written): 62.5, treatment time: 6 h): 130 ± 7.7
- L1 promoter activity (concentration (uM unless unit written): 62.5, treatment time: 24 h): 158 ± 19
- L1 promoter activity (concentration (uM unless unit written): 125, treatment time: 6 h): 119 ± 14
- L1 promoter activity (concentration (uM unless unit written): 125, treatment time: 24 h): 120 ± 20
- L1 promoter activity [1]: 129 ± 21

Compound: O=c1[nH]cc(F)c(=O)[nH]1 [Fluorouracil]
- L1 promoter activity [2]: 110 ± 30
- L1 promoter activity [3]: 107 ± 18
- L1 promoter activity [4]: 109 ± 22
- L1 promoter activity [5]: 83.2 ± 4.1
- L1 promoter activity [6]: 94.5 ± 11
- L1 promoter activity [7]: 73.4 ± 11

Compound: CC(C)n1c(/C=C/C(O)CC(O)CC(=O)O)c(-c2ccc(F)cc2)c2ccccc21 (stereo unspecified) [Fluvastatin]
- L1 promoter activity [2]: 126 ± 35
- L1 promoter activity [3]: 134 ± 32
- L1 promoter activity [4]: 111 ± 32
- L1 promoter activity [5]: 102 ± 23
- L1 promoter activity [6]: 99.4 ± 19
- L1 promoter activity [7]: 109 ± 25

Compound: C=C[C@@]1(C)CC(=O)[C@]2(O)[C@@]3(C)[C@@H](O)CCC(C)(C)[C@@H]3[C@H](O)[C@H](OC(C)=O)[C@@]2(C)O1 [Forskolin]
- L1 promoter activity (concentration (uM unless unit written): 25, treatment time: 6 h): 88.6 ± 4.5
- L1 promoter activity (concentration (uM unless unit written): 25, treatment time: 24 h): 59.9 ± 9
- L1 promoter activity [8]: 85.9 ± 4
- L1 promoter activity [9]: 59 ± 6.1
- L1 promoter activity [10]: 89.2 ± 7.9
- L1 promoter activity [11]: 52 ± 4.8

Compound: NS(=O)(=O)c1cc(C(=O)O)c(NCc2ccco2)cc1Cl [Furosemide]
- L1 promoter activity [10]: 104 ± 28
- L1 promoter activity [11]: 103 ± 24
- L1 promoter activity [1]: 97.3 ± 11
- L1 promoter activity [12]: 96.2 ± 8.4
- L1 promoter activity [13]: 96.9 ± 5.2
- L1 promoter activity [14]: 91.2 ± 6.5
- L1 promoter activity [15]: 89.1 ± 16
- L1 promoter activity [16]: 60.4 ± 2.4

Compound: Nc1nc2c(ncn2COC(CO)CO)c(=O)[nH]1 [Ganciclovir]
- L1 promoter activity [13]: 109 ± 17
- L1 promoter activity [14]: 98.3 ± 6.1
- L1 promoter activity [15]: 115 ± 16
- L1 promoter activity [16]: 104 ± 11

Compound: COc1ccccc1OCC(O)CO (stereo unspecified) [Guaiacol glyceryl ether]
- L1 promoter activity (concentration (uM unless unit written): 1250, treatment time: 6 h): 123 ± 7.7
- L1 promoter activity (concentration (uM unless unit written): 1250, treatment time: 24 h): 99.7 ± 7.2
- L1 promoter activity (concentration (uM unless unit written): 2500, treatment time: 6 h): 136 ± 19
- L1 promoter activity (concentration (uM unless unit written): 2500, treatment time: 24 h): 112 ± 19
- L1 promoter activity (concentration (uM unless unit written): 5000, treatment time: 6 h): 149 ± 13
- L1 promoter activity (concentration (uM unless unit written): 5000, treatment time: 24 h): 145 ± 15

Compound: CC(C)Cc1ccc(C(C)C(=O)O)cc1 (stereo unspecified) [Ibuprofen]
- L1 promoter activity [1]: 118 ± 8.4
- L1 promoter activity [12]: 90.8 ± 3.5
- L1 promoter activity [13]: 99.7 ± 9.8
- L1 promoter activity [14]: 89.6 ± 10
- L1 promoter activity [15]: 97.2 ± 8.2
- L1 promoter activity [16]: 74.9 ± 7.6

Compound: COc1ccc2c(c1)c(CC(=O)O)c(C)n2C(=O)c1ccc(Cl)cc1 [Indometacin]
- L1 promoter activity [1]: 99.1 ± 10
- L1 promoter activity [12]: 83 ± 11
- L1 promoter activity [13]: 92.6 ± 13
- L1 promoter activity [14]: 59.3 ± 6.8
- L1 promoter activity [15]: 67.2 ± 10

Compound: NC(=O)CI [Iodoacetamide]
- L1 promoter activity (concentration (uM unless unit written): 0.1, treatment time: 6 h): 97.4 ± 9
- L1 promoter activity (concentration (uM unless unit written): 0.1, treatment time: 24 h): 103 ± 11
- L1 promoter activity (concentration (uM unless unit written): 1, treatment time: 6 h): 101 ± 13
- L1 promoter activity (concentration (uM unless unit written): 1, treatment time: 24 h): 106 ± 16
- L1 promoter activity [2]: 117 ± 23
- L1 promoter activity [4]: 130 ± 27

Compound: C[C@H](CCC(=O)O)C[C@H](C)C[C@H](C)C(=O)/C=C(\O)[C@H](C)C[C@H](C)C/C=C/[C@@H](C)[C@@H](O)[C@@H](C)[C@@H](O)C[C@@H]1CC[C@@](C)([C@H]2CC[C@@](C)([C@@H](C)O)O2)O1 [Ionomycin]
- L1 promoter activity [2]: 77.1 ± 5
- L1 promoter activity [3]: 79.5 ± 15
- L1 promoter activity [4]: 60 ± 14
- L1 promoter activity [5]: 58.1 ± 11
- L1 promoter activity [6]: 60.5 ± 11
- L1 promoter activity [7]: 36.9 ± 6.4

Compound: CC(=O)N1CCN(c2ccc(OCC3COC(Cn4ccnc4)(c4ccc(Cl)cc4Cl)O3)cc2)CC1 (stereo unspecified) [Ketoconazol]
- L1 promoter activity [4]: 90.8 ± 12
- L1 promoter activity [5]: 82.2 ± 16
- L1 promoter activity [6]: 83.5 ± 11
- L1 promoter activity [7]: 57.5 ± 15
- L1 promoter activity (concentration (uM unless unit written): 40, treatment time: 6 h): 71.4 ± 9.3
- L1 promoter activity (concentration (uM unless unit written): 40, treatment time: 24 h): 37.2 ± 4.2

Compound: CN1CCC(=C2c3ccccc3CC(=O)c3sccc32)CC1 [Ketotifen fumarate salt]
- L1 promoter activity [8]: 90.4 ± 6.5
- L1 promoter activity [9]: 89.9 ± 4.6
- L1 promoter activity [10]: 92.3 ± 7.8
- L1 promoter activity [11]: 83.7 ± 8
- L1 promoter activity [17]: 80.3 ± 4.5

Compound: O=C(O)c1nn(Cc2ccc(Cl)cc2Cl)c2ccccc12 [Lonidamine]
- L1 promoter activity [8]: 105 ± 12
- L1 promoter activity [9]: 93 ± 8
- L1 promoter activity [10]: 87.9 ± 6.3
- L1 promoter activity [11]: 105 ± 9.1
- L1 promoter activity [17]: 99.9 ± 25
- L1 promoter activity (concentration (uM unless unit written): 200, treatment time: 24 h): 91.6 ± 9.5
